Measured values: patent EP0407586A1, “HUMAN MONOCLONAL ANTIBODY AND PROCESS FOR ITS PREPARATION” (TEIJIN LIMITED, priority 1988, dated 1990)
pIC50: −log10 of the molar value.

Test system: reaction of the MCA produced by hybridoma 11-50 with human colon cancer cell line SW480
Assay: Inhibition of the reaction of the MCA with immobilized SW480 cells (ELISA)
Assay type: binding
Details: for pIC50: SW480, read-out: IC50 (concentration of oligosaccharides inhibiting the bonding of MCA to the cancer cells by 50%)
Experimental: It was determined by the ELISA. As an antigen, 10 µg/ml asialofetuin (SIGMA) solution in 0.1 M borate buffer (pH 8.6) whose 100 ul was immobilized to each well of the Falcon microtest III plate (96 wells) was used. The supernatant of the hybridoma culture mixture was added to the plate with 50 µl every well and allowed to stand at room temperature for 1 hour. The wells were washed with 1 % bovine serum albumin (abbreviated to BSA hereinafter)-containing Hanks' buffer salt solution (abbreviated to HBSS-B) 3 times, then 100 µl of 0.6 mg/ml p-nitrophenyl phosphate solution in 1 M diethanolamine + 1 mM MgCl2 (pH 9.8) were added. After 30 to 60 minutes, the absorbance at 405 nm wavelength was measured to select the hybridomas with antibody activity.
Fifty microliters of 30-fold diluted culture supernatant of hybridoma 11-50 with HBSS-B and fifty microliters of a variety of protein solutions diluted stepwise with HBSS-B (described in Table 3) were mixed beforehand, then 50 µl of the mixture was added to a -96-well plate to which human colon cancer cell line SW480 had been immobilized with glutaraldehyde, then allowed to stand at room temperature for 1 hour. The following procedures were done according to the method described in Example 1-(3).
Inhibitory activity in % = [1 - (A405 in the presence of an inhibitor)/(A405-in the absence of an inhibitor)]
Various kinds of oligosaccharides (listed in Table 4) were diluted stepwise with HBSS-B and the solutions were used to conduct the evaluation according to the method ,described in Example 4-(1).

| Compound | pIC50 | inhibitory action of oligosaccharides (SW480, result in words) |
| --- | --- | --- |
| O=C[C@H](O)[C@@H](O)[C@H](O[C@@H]1O[C@H](CO)[C@@H](O)[C@H](O)[C@H]1O)[C@H](O)CO [Cellobiose, Galβ1→4Glc] | < 1.30 | – |
| CO[C@H]1O[C@H](CO)[C@H](O)[C@H](O[C@@H]2O[C@H](CO)[C@H](O)[C@H](O)[C@H]2O)[C@H]1NC(C)=O [Galβ1→3GalNAcα1-OMe] | 2.55 | – |
| OC[C@H]1O[C@@H](O[C@H]2[C@H](O)[C@@H](O)C(O)O[C@@H]2CO)[C@H](O)[C@@H](O)[C@H]1O (stereo partly drawn) [Lactose, Galβ1→4Glc] | 1.68 | – |

More lines, main results first:

| pIC50 | Compound | inhibitory action of oligosaccharides (SW480, result in words) |
| --- | --- | --- |
| < 2.30 | CO[C@@H]1O[C@H](CO)[C@@H](O[C@@H]2O[C@H](CO)[C@H](O)[C@H](O)[C@H]2O)[C@H](O)[C@H]1NC(C)=O [Galβ1→4GlcNAcβ1-OMe] | – |
| 3.17 | CC(=O)N[C@H]1[C@H](O[C@H]2[C@@H](O)[C@@H](CO)O[C@@H](O[C@H]3[C@H](O)[C@@H](O)C(O)O[C@@H]3CO)[C@@H]2O)O[C@H](CO)[C@@H](O)[C@@H]1O[C@@H]1O[C@H](CO)[C@H](O)[C@H](O)[C@H]1O (stereo partly drawn) [Lacto-N-tetraose, Galβ1→3GlcNAcβ1→3Galβ1→4Glc] | strongest inhibition |
